Measured values published in patent US10556856B2, “Antibacterial agents” (Rutgers, The State University of New Jersey, priority 2014, dated 2020).
“And” between values parts separate entries of the source, which are not always exact repeats. Equal entries are not always repeated. Structures can show the parent of a compound that is named as a salt. Where two headings read alike, the source gives them in different places.

How the values were obtained:
[1] = tested on: Staphylococcus aureus Rosenbach ATCC 29213; experiment: Broth microdilution assay
[2] = tested on: Listeria monocytogenes ATCC 49594; experiment: Broth microdilution assay
[3] = tested on: Escherichia coli ATCC 43895; experiment: Broth microdilution assay
[4] = tested on: Pseudomonas aeruginosa ATCC 14213; experiment: Broth microdilution assay
A. baumannii = experiment: CLSI/NCCLS broth microdilution assay; assay type: cell-based; settings: 18 hours
B. cereus = experiment: CLSI/NCCLS broth microdilution assay; assay type: cell-based
B. cepacia = experiment: CLSI/NCCLS broth microdilution assay; assay type: cell-based; settings: 18 hours
B. neotomae = experiment: CLSI/NCCLS broth microdilution assay; assay type: cell-based; settings: 18 hours
E. faecium = experiment: CLSI/NCCLS broth microdilution assay; assay type: cell-based
K. pneumoniae = experiment: CLSI/NCCLS broth microdilution assay; assay type: cell-based; settings: 18 hours
L. pneumophilia = experiment: CLSI/NCCLS broth microdilution assay; assay type: cell-based; settings: 18 hours
P. aeruginosa = experiment: CLSI/NCCLS broth microdilution assay; assay type: cell-based; settings: 18 hours
S. aureus [5] = assay type: cell-based
Y. pseudotuberculosis = assay type: cell-based; settings: 18 hours
S. epidermidis = experiment: CLSI/NCCLS broth microdilution assay; assay type: cell-based
E. coli = experiment: Test A MIC/MBC study; assay type: cell-based; settings: for MBC: killing of ≥99.9% of the organisms; for MIC: tryptic soy broth, 37° C. overnight
Method: (§1) MIC/MBC studies were conducted according to a modified literature procedure (LaDow JE, et al. European Journal of Medicinal Chemistry. 46 (2011) 4219-4226). In brief, stock amphiphile solutions were made in 1 mL double-distilled water (0.1M C8 and C10; 0.02M C12), filter sterilized, and sonicated for five minutes. Stocks were then diluted 100× in tryptic soy broth and vortexed. This broth was serially diluted in fresh broth and 100 μL “doped” broth was transferred to 96-well microtiter plate. 10^6 Cfu/mL inoculums were prepared for E. coli and S. aureus. 100 μL inoculum was added to the wells. Plates were put on a shaker for 5 minutes to mix inoculum and broth. Plates were incubated at 37° C. overnight. Wells were visually analyzed the next day by growth or no growth. After MICs were determined, aliquots were taken from each well, plated, and incubated to determine the MBC values for each compound. MBC values were defined as killing of ≥99.9% of the organisms, which corresponds to a 3-log reduction.

S. aureus [6] = experiment: Test A MIC/MBC study; assay type: cell-based; settings: Staphylococcus aureus; for MBC: killing of ≥99.9% of the organisms; for MIC: tryptic soy broth, 37° C. overnight
Method: as §1

[7] = Staphylococcus aureus, ATCC29213, 24 h
[8] = Listeria monocytogenes, ATCC49594, 24 h
[9] = Escherichia coli, ATCC43895, 24 h
[10] = Pseudomonas aeruginosa, ATCC14213, 24 h
[11] = S. aureus (G+), TSB, 37° C., 24 h
[12] = L. monocytogenes (G+), TSB, 37° C., 24 h
[13] = E. coli (G−), TSB, 37° C., 24 h
[14] = P. aeruginosa (G−), TSB, 37° C., 24 h
[15] = Escherichia coli, read-out: MIC

| Compound | MIC (A. baumannii) [µg/mL] | MIC (B. cepacia) [µg/mL] | MIC (B. neotomae) [µg/mL] | MIC (K. pneumoniae) [µg/mL] | MIC (P. aeruginosa) [µg/mL] | MIC (Y. pseudotuberculosis) [µg/mL] | Vero Cell Cytotoxicity (Vero Cell) [µg/mL] | MIC [1, 11] | MIC [2, 12] | MIC [3, 13] [µM] | MIC [4, 14] [µM] | MBC (E. coli; Escherichia coli) | MIC (E. coli; [15]) | MBC (S. aureus [6]) | MIC (S. aureus [6]) | further results |
| --- | --- | --- | --- | --- | --- | --- | --- | --- | --- | --- | --- | --- | --- | --- | --- | --- |
| CCCCCCCCCCCCCCCC[N+](C)(C)C [CTAB, Cetyltrimethylammonium bromide, reference compound] |  |  |  |  |  |  |  |  |  |  |  |  |  |  |  | MIC [1, 7]: 4 µM; MIC [2, 8]: 8 µM; MIC [3, 9]: 32 µM; MIC [4, 10]: 16 µM |
| CCCCCCCCCCC(=O)OC(C(=O)NCCN)C(OC(=O)CCCCCCCCCC)C(=O)NCCN.Cl.Cl (stereo not shown) [Amphiphile G9] | >50 | >50 | 3.125 | >50 | >50 | 6.25 | 50 | 500 µM | 250 µM | 125 | 250 |  |  |  |  | MIC (B. cereus): 6.25 µg/mL; MIC (E. faecium): 6.25 µg/mL; MIC (L. pneumophilia): 25 µg/mL; MIC (S. aureus [5]): 6.25 µg/mL; MIC (S. epidermidis): 6.25 µg/mL |
| [H]/N=C(/N)N[C@H]1[C@H](O)[C@@H](O)[C@H](O[C@@H]2O[C@@H](C)[C@](O)(C=O)[C@H]2O[C@@H]2O[C@@H](CO)[C@H](O)[C@@H](O)[C@@H]2NC)[C@@H](N/C(N)=N\[H])[C@@H]1O [Streptomycin Sulfate, reference compound] |  |  |  |  |  |  |  |  |  |  |  | < 100 µg/mL | < 100 µg/mL | < 100 µg/mL | < 100 µg/mL | MIC (E. coli): <100 (<100) μg/mL |
| CCCNC(=O)[C@H](OC(=O)CCCCCCCCCN)[C@@H](OC(=O)CCCCCCCCCN)C(=O)NCCC.Cl.Cl [Amphiphile B9] |  |  |  |  |  |  |  | 125 µM | 125 µM | 500 | 250 | 500 µM and 322 µg/mL | 500 µM and 322 µg/mL | 250 µM and 171 µg/mL | 125 µM and 80.5 µg/mL |  |
| CCCNC(=O)[C@H](OC(=O)CCCCCCCN)[C@@H](OC(=O)CCCCCCCN)C(=O)NCCC.Cl.Cl [Amphiphile B7] |  |  |  |  |  |  |  | 500 µM | 500 µM | 1000 | 1000 | 1000 µM and 588 µg/mL | 1000 µM and 588 µg/mL | 500 µM and 294 µg/mL | 500 µM and 294 µg/mL |  |
| CCCCCCCCC(=O)OC(C(=O)NCCN)C(OC(=O)CCCCCCCC)C(=O)NCCN.Cl.Cl (stereo not shown) [Amphiphile G7] | >50 | >50 | 3.125 | 50 | 25 | 12.5 | >50 | 63 μM and 62.5* μM | 63 μM and 62.5* μM | 63 | 125 |  |  |  |  | MIC (B. cereus; B. cereus, 18 hours): 6.25 µg/mL; MIC (E. faecium; E. faecium, 18 hours): 6.25 µg/mL; MIC (S. epidermidis): 12.5 µg/mL |
| CCCNC(=O)[C@H](OC(=O)CCCCCCCCCCCN)[C@@H](OC(=O)CCCCCCCCCCCN)C(=O)NCCC.Cl.Cl [Amphiphile B11] | >50 | >50 | 25 | >50 | >50 | >50 | 50 | 25 µM | 12.5 µM | 100 | 50 | 400 µM and 280 µg/mL | 400 µM and 280 µg/mL | 50 µM and 35 µg/mL | 25 µM and 17.5 µg/mL | MIC (B. cereus; B. cereus, 18 hours): 50 µg/mL; MIC (E. faecium; E. faecium, 18 hours): 25 µg/mL; MIC (L. pneumophilia): >50 µg/mL; MIC (S. aureus [5]; S. aureus, 18 hours): 25 µg/mL; MIC (S. epidermidis; S. epidermidis, 18 hours): 25 µg/mL |
| CCCCCCCCCCCCOS(=O)(=O)[O-].[Na+] [SDS, Sodium dodecyl sulfate, reference compound] |  |  |  |  |  |  |  |  |  |  |  |  |  |  |  | MIC [1, 7]: 1000 µM; MIC [2, 8]: 2000 µM; MIC [3, 9]: > 2000 µM; MIC [4, 10]: > 2000 µM |
